Test results reported in PubChem BioAssay (NCI).
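Values below derive from 48-hour exposures of cells grown in 96-well plates, with endpoints linearly interpolated between the two concentrations bracketing the appropriate inhibition level. Abbreviation: GI50, concentration required for 50% inhibition of growth. TGI marks complete inhibition of growth.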

How the values were obtained:
Assay in all cases: inhibition of tumour cell growth, NCI panel, 48 h
HOP-62 NSCLC = system: HOP-62 NSCLC
SF-539 CNS = system: SF-539 CNS
COLO 205 colon = system: COLO 205 colon
OVCAR-4 ovarian = system: OVCAR-4 ovarian
NCI-H226 lung = system: NCI-H226 lung
HCT-15 colon = system: HCT-15 colon
HOP-92 NSCLC = system: HOP-92 NSCLC
HCC-2998 colon = system: HCC-2998 colon
LOX IMVI melanoma = system: LOX IMVI melanoma
MDA-MB-231 breast = system: MDA-MB-231 breast
RXF 393 renal = system: RXF 393 renal
MCF7 breast = system: MCF7 breast
SN12C renal = system: SN12C renal
SNB-19 CNS = system: SNB-19 CNS
CAKI-1 renal = system: CAKI-1 renal
UO-31 renal = system: UO-31 renal
HL-60(TB) leukemia = system: HL-60(TB) leukemia
HS 578T breast = system: HS 578T breast
TK-10 renal = system: TK-10 renal
RPMI-8226 leukemia = system: RPMI-8226 leukemia
BT-549 breast = system: BT-549 breast
K-562 leukemia = system: K-562 leukemia
MOLT-4 leukemia = system: MOLT-4 leukemia
A498 renal = system: A498 renal
CCRF-CEM leukemia = system: CCRF-CEM leukemia
KM12 colon = system: KM12 colon
U251 CNS = system: U251 CNS
SK-MEL-2 melanoma = system: SK-MEL-2 melanoma
SF-295 CNS = system: SF-295 CNS
T-47D breast = system: T-47D breast
NCI-H522 lung = system: NCI-H522 lung
SK-OV-3 ovarian = system: SK-OV-3 ovarian
A549 NSCLC = system: A549 NSCLC
UACC-62 melanoma = system: UACC-62 melanoma
MDA-MB-435 = system: MDA-MB-435
ACHN renal = system: ACHN renal
SR leukemia = system: SR leukemia
M14 melanoma = system: M14 melanoma
OVCAR-8 ovarian = system: OVCAR-8 ovarian
SK-MEL-28 melanoma = system: SK-MEL-28 melanoma
MALME-3M melanoma = system: MALME-3M melanoma
NCI-H460 lung = system: NCI-H460 lung
786-0 renal = system: 786-0 renal
OVCAR-3 ovarian = system: OVCAR-3 ovarian
MDA-MB-468 breast = system: MDA-MB-468 breast
HCT-116 colon = system: HCT-116 colon
HT29 colon = system: HT29 colon
SW-620 colon = system: SW-620 colon
OVCAR-5 ovarian = system: OVCAR-5 ovarian
PC-3 prostate = system: PC-3 prostate
UACC-257 melanoma = system: UACC-257 melanoma
EKVX NSCLC = system: EKVX NSCLC
IGROV1 ovarian = system: IGROV1 ovarian
NCI-H23 lung = system: NCI-H23 lung
SF-268 CNS = system: SF-268 CNS
SK-MEL-5 melanoma = system: SK-MEL-5 melanoma
DU-145 prostate = system: DU-145 prostate

CN(C)c1nc(NCCNS(=O)(=O)c2ccc(C(=O)/C=C/c3ccc(C(F)(F)F)cc3)cc2)nc(N2CCOCC2)n1
GI50 (HOP-62 NSCLC): 17 µM
TGI (HOP-62 NSCLC): 32.3 µM
GI50 (SF-539 CNS): 13 µM
TGI (SF-539 CNS): 25.7 µM
GI50 (COLO 205 colon): 15 µM
TGI (COLO 205 colon): 32.4 µM
GI50 (OVCAR-4 ovarian): 14.8 µM
TGI (OVCAR-4 ovarian): 28.9 µM
GI50 (NCI-H226 lung): 16.1 µM
TGI (NCI-H226 lung): 35.6 µM
GI50 (HCT-15 colon): 1.86 µM
TGI (HCT-15 colon): 3.62 µM
GI50 (HOP-92 NSCLC): 15.2 µM
TGI (HOP-92 NSCLC): 31.5 µM
GI50 (HCC-2998 colon): 12.9 µM
TGI (HCC-2998 colon): 26 µM
GI50 (LOX IMVI melanoma): 1.68 µM
TGI (LOX IMVI melanoma): 3.16 µM
GI50 (MDA-MB-231 breast): 11.7 µM
TGI (MDA-MB-231 breast): 24.2 µM
GI50 (RXF 393 renal): 11.5 µM
TGI (RXF 393 renal): 23.7 µM
GI50 (MCF7 breast): 1.68 µM
TGI (MCF7 breast): 3.34 µM
GI50 (SN12C renal): 12.5 µM
TGI (SN12C renal): 25 µM
GI50 (SNB-19 CNS): 13.5 µM
TGI (SNB-19 CNS): 26.4 µM
GI50 (CAKI-1 renal): 11.4 µM
TGI (CAKI-1 renal): 24.3 µM
GI50 (UO-31 renal): 11.9 µM
TGI (UO-31 renal): 24.2 µM
GI50 (HL-60(TB) leukemia): 5.12 µM
TGI (HL-60(TB) leukemia): 86.3 µM
GI50 (HS 578T breast): 17.8 µM
TGI (HS 578T breast): 64.4 µM
GI50 (TK-10 renal): 15.5 µM
TGI (TK-10 renal): 29.5 µM
GI50 (RPMI-8226 leukemia): 1.77 µM
TGI (RPMI-8226 leukemia): 5.72 µM
GI50 (BT-549 breast): 15.6 µM
TGI (BT-549 breast): 29.3 µM
GI50 (K-562 leukemia): 3.21 µM
TGI (K-562 leukemia): > 100 µM
GI50 (MOLT-4 leukemia): 3.48 µM
TGI (MOLT-4 leukemia): > 100 µM
GI50 (A498 renal): 13.3 µM
TGI (A498 renal): 26.6 µM
GI50 (CCRF-CEM leukemia): 3.2 µM
TGI (CCRF-CEM leukemia): > 100 µM
GI50 (KM12 colon): 8.95 µM
TGI (KM12 colon): 25.5 µM
GI50 (U251 CNS): 2.95 µM
TGI (U251 CNS): 11 µM
GI50 (SK-MEL-2 melanoma): 16.3 µM
TGI (SK-MEL-2 melanoma): 30.4 µM
GI50 (SF-295 CNS): 8.11 µM
TGI (SF-295 CNS): 20.6 µM
GI50 (T-47D breast): 5.5 µM
TGI (T-47D breast): 27.2 µM
GI50 (NCI-H522 lung): 15.2 µM
TGI (NCI-H522 lung): 29.8 µM
GI50 (SK-OV-3 ovarian): 14.7 µM
TGI (SK-OV-3 ovarian): 29.5 µM
GI50 (A549 NSCLC): 13.8 µM
TGI (A549 NSCLC): 29.3 µM
GI50 (UACC-62 melanoma): 11.2 µM
TGI (UACC-62 melanoma): 23.3 µM
GI50 (MDA-MB-435): 10.3 µM
TGI (MDA-MB-435): 23 µM
GI50 (ACHN renal): 8.6 µM
TGI (ACHN renal): 20.7 µM
GI50 (SR leukemia): 6.31 µM
TGI (SR leukemia): > 100 µM
GI50 (M14 melanoma): 9.83 µM
TGI (M14 melanoma): 22.2 µM
GI50 (OVCAR-8 ovarian): 14.4 µM
TGI (OVCAR-8 ovarian): 28.1 µM
GI50 (SK-MEL-28 melanoma): 14.4 µM
TGI (SK-MEL-28 melanoma): 27.5 µM
GI50 (MALME-3M melanoma): 14.4 µM
TGI (MALME-3M melanoma): 27.6 µM
GI50 (NCI-H460 lung): 16.1 µM
TGI (NCI-H460 lung): 32.5 µM
GI50 (786-0 renal): 14.5 µM
TGI (786-0 renal): 28.2 µM
GI50 (OVCAR-3 ovarian): 16.4 µM
TGI (OVCAR-3 ovarian): 30.6 µM
GI50 (MDA-MB-468 breast): 5.11 µM
TGI (MDA-MB-468 breast): 18.4 µM
GI50 (HCT-116 colon): 3.19 µM
TGI (HCT-116 colon): 10 µM
GI50 (HT29 colon): 2.06 µM
TGI (HT29 colon): 4.51 µM
GI50 (SW-620 colon): 3.3 µM
TGI (SW-620 colon): 11.1 µM
GI50 (OVCAR-5 ovarian): 14.5 µM
TGI (OVCAR-5 ovarian): 27.7 µM
GI50 (PC-3 prostate): 10.8 µM
TGI (PC-3 prostate): 25.4 µM
GI50 (UACC-257 melanoma): 15.3 µM
TGI (UACC-257 melanoma): 29.4 µM
GI50 (EKVX NSCLC): 14.3 µM
TGI (EKVX NSCLC): 27.4 µM
GI50 (IGROV1 ovarian): 1.77 µM
TGI (IGROV1 ovarian): 3.51 µM
GI50 (NCI-H23 lung): 13 µM
TGI (NCI-H23 lung): 26.2 µM
GI50 (SF-268 CNS): 16.3 µM
TGI (SF-268 CNS): 37.8 µM
GI50 (SK-MEL-5 melanoma): 15.8 µM
TGI (SK-MEL-5 melanoma): 29.5 µM
GI50 (DU-145 prostate): 15.4 µM
TGI (DU-145 prostate): 28.9 µM
